Experimental data reported in patent publication US7064120B2, “Tricyclic pyridyl carboxamides and derivatives thereof tocolytic oxytocin receptor antagonists” (Wyeth, priority 2001, dated 2006).

Biological target: T1, human oxytocin receptor (Homo sapiens, UniProt P30559)
T1 construct: host or cells: CHO cells, stably transfected (pcDNA3.1 vector)
T1 sequence (P30559 1-389): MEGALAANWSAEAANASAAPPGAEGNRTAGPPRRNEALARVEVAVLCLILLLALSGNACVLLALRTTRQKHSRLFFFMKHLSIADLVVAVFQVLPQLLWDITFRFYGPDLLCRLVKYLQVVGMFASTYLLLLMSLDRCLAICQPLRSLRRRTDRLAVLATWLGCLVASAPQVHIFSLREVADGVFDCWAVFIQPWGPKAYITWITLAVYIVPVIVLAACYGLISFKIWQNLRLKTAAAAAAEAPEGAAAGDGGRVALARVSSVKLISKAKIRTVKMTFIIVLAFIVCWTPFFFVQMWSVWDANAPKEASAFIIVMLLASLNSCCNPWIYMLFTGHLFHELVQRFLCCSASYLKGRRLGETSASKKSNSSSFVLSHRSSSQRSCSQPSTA
Test: Oxytocin binding in CHO cell membranes expressing human oxytocin receptors ([3H]oxytocin radioligand binding)
Conditions: 100 nM; for inhibition at 0.1 µM: read-out: OT % inhibition @ 100 nM
Method: Oxytocin Binding in Chinese Hamster Ovary Cell Membranes Expressing Human Oxytocin Receptors
Cell Culture medium (e.g. 30 mL for 1:30 split) is immediately added and mixed well to inactivate trypsin. 1 mL of detached cells is added to new culture flasks containing fresh Cell Culture medium (e.g. into 25 mL per T-150 flask), and mixed gently. The cells are incubated at 37° C. in 5% CO2. The medium is changed at 3 to 4 days interval (or as appropriate). […] All steps are done under sterile conditions.
The cells are washed twice gently with Hank's Balanced Salt solution (e.g., use 10 mL per T-150 flask). […] The contents are transferred to centrifuge tubes (50 mL size) kept in ice bath. All subsequent steps are done at 4° C. The tubes are centrifuged at 300×g for 15 min (1380 rpm on SORVAL, Model RT6000D, using rotor for 50 mL tubes). The supernatant is discarded and the cells suspended in homogenizing buffer (10 mM Tris-HCl containing 0.25 M sucrose and 1 mM EDTA, pH 7.4) ensuring that the volume of the buffer is about ten times the volume of the cell pellet. The cells are pooled into a centrifuge tube (50 mL) and homogenized with a Polytron at setting 6 for 10 sec. The homogenate is transferred into a Potter-Elvjehm homogenizer and homogenized with 3 strokes. The homogenate is centrifuged at 1500×g for 10 min at 4° C. (3100 rpm using SORVAL, model RT6000D, using a rotor for 50 mL tubes). The pellet is discarded. The supernatant is centrifuged at 100,000×g for 60 min. at 4° C. (Beckman L8-80M ultracentrifuge; spin at 37,500 rpm with rotor type 70 Ti for 50 mL tubes; 38,000 rpm with rotor type 8OTi for 15 mL tubes; or 35,800 rpm with rotor type 45Ti). The supernantant is discarded and the pellet suspended in 3 to 4 mL of Tris buffer (50 mM TRIS-HCl, pH 7.4). The protein content is estimated by the Bradford or Lowry method. The volume of the membrane suspension is adjusted with the membrane buffer (50 mM Tris-HCl containing 0.1% BSA and 0.1 mM PMSF) to give 3.0 mg/mL (or as appropriate) of protein. The membranes are aliquoted and stored at −70° C.
In wells of a 96-well format microtiter plate, is added 90, 110 or 130 μL (to make up a final volume of 200 μL) of assay buffer containing 50 mM of Tris-HCl (pH 7.4), […], 1 mg % aprotinin, 1 mg % leupeptin, 2 mg % 1,10-phenanthroline, 10 mg % trypsin inhibitor, and 0.1 mM PMSF. The inhibitors are added on the day of the experiment. The components are mixed at room temperature, and then kept in ice bath following adjustment of the pH to 7.4. […] For oxytocin and other peptide ligands, 20 μL of 50% DMSO is added and the assay buffer volume is adjusted accordingly. To each well is added 50 μL of frozen membrane suspension thawed immediately prior to use and diluted in assay buffer to the required concentration (equivalent to 25 to 50 μg of protein/well as needed). 20 μL of 8 nM [^3H]oxytocin in the assay buffer, prepared just before use is added and incubated at room temperature for 60 min. shaking the plate on a mechanical shaker for the first 15 min. The incubation is stopped by rapid filtration of the plate contents followed by washing with ice-cold buffer (50 mM Tris-HCl, pH 7.4) using a cell harvester (Tomtek and Printed filtermat-B filter paper). The filter paper is thoroughly dried (7–12 min. in a microwave oven) and impregnated with MeltiLex B/H melt-on scintillation wax sheets and the radioactivity counted in a betaplate scintillation counter.
Binding data is either reported as percent inhibition at a certain concentration or if an IC50 was calculated, as a nanomolar concentration.

Compound | inhibition at 0.1 µM [%] | OT % inhibition @ 100 nM [%]
COc1cc(C(=O)N2Cc3ccc(C(=O)NCCc4ccccn4)n3Cc3ccccc32)ccc1-c1ccccc1C [Example 54, 10-[(2-Methoxy-2′-methyl-[1,1′-biphenyl]-4-yl)carbonyl]-N-[2-(2-pyridinyl)ethyl]-10,11-dihydro-5H-pyrrolo[2,1-c][1,4]benzodiazepine-3-carboxamide] | 55 | 
COc1cc(-c2ccccc2C)c(Cl)cc1C(=O)N1Cc2ccc(C(=O)NCCc3ccccn3)n2Cc2ccccc21 [Example 55, 10-[(6-Chloro-3-methoxy-2′-methyl-[1,1′-biphenyl]-4-yl)carbonyl]-N-[2-(2-pyridinyl)ethyl]-10,11-dihydro-5H-pyrrolo[2,1-c][1,4]benzodiazepine-3-carboxamide] | 50 | 
COc1cccc(-c2cc(OC)c(C(=O)N3Cc4ccc(C(=O)NCCc5ccccn5)n4Cc4ccccc43)cc2Cl)c1 [Example 56, 10-[(6-Chloro-3,3′-dimethoxy-[1,1′-biphenyl]-4-yl)carbonyl]-N-[2-(2-pyridinyl)ethyl]-10,11-dihydro-5H-pyrrolo[2,1-c][1,4]benzodiazepine-3-carboxamide] | 31 | 
COc1cc(C(=O)N2Cc3ccc(C(=O)NCCc4ccccn4)n3Cc3ccccc32)ccc1-c1cccc2ccccc12 [Example 57, 10-[3-Methoxy-4-(naphthalen-1-yl)benzoyl]-N-[2-(2-pyridinyl)ethyl]-10,11-dihydro-5H-pyrrolo[2,1-c][1,4]benzodiazepine-3-carboxamide] | 32 | 
COc1ccccc1-c1ccc(C(=O)N2Cc3ccc(C(=O)NCCc4ccccn4)n3Cc3ccccc32)cc1OC [Example 58, 10-[(2,2′-Dimethoxy-[1,1′-biphenyl]-4-yl)carbonyl]-N-[2-(2-pyridinyl)ethyl]-10,11-dihydro-5H-pyrrolo[2,1-c][1,4]benzodiazepine-3-carboxamide] | 37 | 
COc1cccc(-c2ccc(C(=O)N3Cc4ccc(C(=O)NCCc5ccccn5)n4Cc4ccccc43)cc2OC)c1 [Example 59, 10-[(2,3′-Dimethoxy-[1,1′-biphenyl]-4-yl)carbonyl]-N-[2-(2-pyridinyl)ethyl]-10,11-dihydro-5H-pyrrolo[2,1-c][1,4]benzodiazepine-3-carboxamide] | 40 | 
O=C(NCCc1ccccn1)c1ccc2n1Cc1ccccc1N(C(=O)c1ccc(-c3cccc4ccccc34)cc1Cl)C2 [Example 60, 10-[2-Chloro-4-(naphthalen-1-yl)benzoyl]-N-[2-(2-pyridinyl)ethyl]-10,11-dihydro-5H-pyrrolo[2,1-c][1,4]benzodiazepine-3-carboxamide] | 11 | 
Cc1cc(C(=O)N2Cc3ccc(C(=O)NCCc4ccccn4)n3Cc3ccccc32)ccc1-c1ccccc1C(F)(F)F [Example 61, 10-{[2-Methyl-2′-trifluoromethyl=[1,1′-biphenyl]-4-yl]carbonyl}-N-[2-(2-pyridinyl)ethyl]-10,11-dihydro-5H-pyrrolo[2,1-c][1,4]benzodiazepine-3-carboxamide] |  | 26
COc1ccccc1-c1ccc(C(=O)N2Cc3ccc(C(=O)N(C)CCc4ccccn4)n3Cc3ccccc32)cc1OC [Example 64, 10-[(2,2′-Dimethoxy-[1,1′-biphenyl]-4-yl)carbonyl]-N-methyl-N-[2-(2-pyridinyl)ethyl]-10,11-dihydro-5H-pyrrolo[2,1-c][1,4]benzodiazepine-3-carboxamide] | 91 | 
COc1cc(C(=O)N2Cc3ccc(C(=O)N4CCN(c5ccccn5)CC4)n3Cc3ccccc32)ccc1-c1cccc2ccccc12 [Example 83] |  | 30
COc1cccc(-c2ccc(C(=O)N3Cc4ccc(C(=O)NCc5ccncc5)n4Cc4ccccc43)cc2OC)c1 [Example 98] |  | 39
COc1cc(C(=O)N2Cc3ccc(C(=O)N(C)Cc4cccnc4)n3Cc3ccccc32)ccc1-c1ccccc1C [Example 106, 10-[(2-Methoxy-2′-methyl-[1,1′-biphenyl]-4-yl)carbonyl]-N-methyl-N-(3-pyridinylmethyl)-10,11-dihydro-5H-pyrrolo[2,1-c][1,4]benzodiazepine-3-carboxamide] | 98 | 
COc1cc(-c2ccccc2C)c(Cl)cc1C(=O)N1Cc2ccc(C(=O)N(C)Cc3cccnc3)n2Cc2ccccc21 [Example 107, 10-[(6-Chloro-3-methoxy-2′-methyl-[1,1′-biphenyl]-4-yl)carbonyl]-N-methyl-N-(3-pyridinylmethyl)-10,11-dihydro-5H-pyrrolo[2,1-c][1,4]benzodiazepine-3-carboxamide] | 92 | 
COc1cccc(-c2cc(OC)c(C(=O)N3Cc4ccc(C(=O)N(C)Cc5cccnc5)n4Cc4ccccc43)cc2Cl)c1 [Example 108, 10-[(6-Chloro-3,3′-dimethoxy-[1,1′-biphenyl]-4-yl)carbonyl]-N-methyl-N-(3-pyridinylmethyl)-10,11-dihydro-5H-pyrrolo[2,1-c][1,4]benzodiazepine-3-carboxamide] | 83 | 
COc1cc(C(=O)N2Cc3ccc(C(=O)N(C)Cc4cccnc4)n3Cc3ccccc32)ccc1-c1cccc2ccccc12 [Example 109, 10-[3-Methoxy-4-(naphthalen-1-yl)benzoyl]-N-methyl-N-(3-pyridinylmethyl)-10,11-dihydro-5H-pyrrolo[2,1-c][1,4]benzodiazepine-3-carboxamide] | 70 | 
COc1cccc(-c2ccc(C(=O)N3Cc4ccc(C(=O)N(C)Cc5cccnc5)n4Cc4ccccc43)cc2OC)c1 [Example 110] |  | 94
CN(Cc1cccnc1)C(=O)c1ccc2n1Cc1ccccc1N(C(=O)c1ccc(-c3cccc4ccccc34)cc1Cl)C2 [Example 111, 10-[2-Chloro-4-(naphthalen-1-yl)benzoyl]-N-methyl-N-(3-pyridinylmethyl)-10,11-dihydro-5H-pyrrolo[2,1-c][1,4]benzodiazepine-3-carboxamide] | 36 | 
Cc1ccccc1-c1ccc(C(=O)N2Cc3ccc(C(=O)N4CCN(c5ccncc5)CC4)n3Cc3ccccc32)cc1C [Example 114, {10-[(2,2′-Dimethyl-[1,1′-biphenyl]-4-yl)carbonyl]-10,11-dihydro-5H-pyrrolo[2,1-c][1,4]benzodiazepin-3-yl}[4-(4-pyridinyl)-1-piperazinyl]methanone] | 94 | 
COc1cccc(-c2ccc(C(=O)N3Cc4ccc(C(=O)N5CCN(c6ccncc6)CC5)n4Cc4ccccc43)cc2C)c1 [Example 115, {10-[(3′-Methoxy-2-methyl-[1,1′-biphenyl]-4-yl)carbonyl]-10,11-dihydro-5H-pyrrolo[2,1-c][1,4]benzodiazepin-3-yl}[4-(4-pyridinyl)-1-piperazinyl]methanone] | 66 | 
COc1ccccc1-c1ccc(C(=O)N2Cc3ccc(C(=O)N4CCN(c5ccncc5)CC4)n3Cc3ccccc32)cc1 [Example 116, {10-[(2′-Methoxy-[1,1′-biphenyl]-4-yl)carbonyl]-10,11-dihydro-5H-pyrrolo[2,1-c][1,4]benzodiazepin-3-yl}[4-(4-pyridinyl)-1-piperazinyl]methanone] | 101 | 
